According to patent US20250019400A1, “POLYPEPTIDE AND COSMETIC COMPOSITION OR PHARMACEUTICAL COMPOSITION AND USE THEREOF” (SHENZHEN WINKEY TECHNOLOGY CO., LTD, priority 2022, published 2025):

System: smooth muscle contraction in ileum
Assay: Muscle contraction inhibition experiment (acetylcholine-induced smooth muscle contraction in isolated ileum)
Set-up: species or system SD rats
Conditions: after acetylcholine, rat ileum
Description: 10 week old female SD rats weighing 220 g-260 g.
HW-400S constant temperature smooth muscle trough, BL-420E biological function experimental system, tension transducer, and other instruments as conventional experimental instruments.
acetylcholine chloride (Shanghai Yuanye), chloral hydrate (Shanghai Macklin).
• Acetyl octapeptide-3(Ac-Glu-Glu-Met-Gln-Arg-Arg-Ala-Asp-NH2), at a test concentration of 25 ppm, 50 ppm, 100 ppm, and 200 ppm, respectively; • Acetyl hexapeptide-30(Ac-Glu-Asp-Tyr-Tyr-Arg-Leu-NH2), at a test concentration of 25 ppm, 50 ppm, 100 ppm, and 200 ppm, respectively; • the peptide (4), at a test concentration of 25 ppm, 50 ppm, 100 ppm, and 200 ppm, respectively; • the peptide (8), at a test concentration of 25 ppm, 50 ppm, 100 ppm, and 200 ppm, respectively; • the peptide (32), at a test concentration of 100 ppm, 200 ppm, 400 ppm, and 800 ppm, respectively.
The experimental rats were fasted except for water for 12 hours before the experiment. 10% chloral hydrate was injected intraperitoneally into the rats at a dosage of 0.1 mL/25 g, and after the rats were anesthetized, the abdominal cavity was cut open to expose the enlarged cecum. A segment of ileum was taken out from the ileocecal region and washed clean in a tyrode's solution pre-bubbled with oxygen for 10 min, and several 4 cm long segments of ileum were cut and incubated in a tyrode's solution at 4° C. for subsequent use; and both ends of the ileum were tied partially and knotted with cotton threads to form a loop.
The HW-400S constant temperature smooth muscle trough and the BL-420E biological function experimental system were turned on, the tension transducer was connected to channel 1, the incubation temperature was adjusted to 37° C., the instruments were preheated for 0.5 hours, and oxygen was bubbled for more than 10 min. One end of the ileum segment is fixed to the intake bracket port with a cotton thread, and the other end thereof is connected to the tension transducer. The position and height of the transducer were appropriately adjusted to place the excised ileum segment in the center of the smooth muscle trough and then record of ileum activity was started.
After the muscle contraction was stabilized, acetylcholine with a final concentration of 0.1-1 μg/mL was added until a high and stable waveform appears in the muscle activity, and the action lasted for 5 minutes as the initial control. After balancing for 5 minutes, the samples to be tested were added respectively. Each time the test drug was replaced, the ileum segment was replaced with a new one, and relevant data was recorded by the instruments. The inhibition rate of smooth muscle contraction in ileum was calculated according to the following formula:
Inhibition rate of smooth muscle contraction in ileum=(contraction force after acetylcholine administration−contraction force after test sample administration)/contraction force after acetylcholine administration×100%
The experimental data was represented by mean standard deviation (Mean±SD).

## Ac-Glu-Asp-Tyr-Tyr-Arg-Leu-NH2 (Ac-EDYYRL-NH2) [Acetyl hexapeptide-30, polypeptide in the prior art used as comparison sample, reference compound]
25 ppm, Mean±SD
  Inhibition rate of smooth muscle contraction in ileum: 0.00 ± 2.45%
50 ppm, Mean±SD
  Inhibition rate of smooth muscle contraction in ileum: 0.47 ± 2.09%
100 ppm, Mean±SD
  Inhibition rate of smooth muscle contraction in ileum: 2.73 ± 0.66%
200 ppm, Mean±SD
  Inhibition rate of smooth muscle contraction in ileum: 48.09%

## Ac-Glu-Glu-Met-Gln-Arg-Arg-Ala-Asp-NH2 (Ac-EEMQRRAD-NH2) [Acetyl octapeptide-3, polypeptide in the prior art used as comparison sample, reference compound]
25 ppm, Mean±SD
  Inhibition rate of smooth muscle contraction in ileum: 10.2 ± 1.23%
50 ppm, Mean±SD
  Inhibition rate of smooth muscle contraction in ileum: 32.34%
100 ppm, Mean±SD
  Inhibition rate of smooth muscle contraction in ileum: 47.49%
200 ppm, Mean±SD
  Inhibition rate of smooth muscle contraction in ileum: 58.67%

## Ac-Ser-Met-Gly-Ala-Leu-Ala-NH2 (Ac-SMGALA-NH2) [Peptide (8)]
25 ppm, Mean±SD
  Inhibition rate of smooth muscle contraction in ileum: 31.99%
50 ppm, Mean±SD
  Inhibition rate of smooth muscle contraction in ileum: 34.35%
100 ppm, Mean±SD
  Inhibition rate of smooth muscle contraction in ileum: 56.42%
200 ppm, Mean±SD
  Inhibition rate of smooth muscle contraction in ileum: 67.96%

## Ac-Trp-Ala-Ala-Pro-Phe-Leu-Arg-Ala-NH2 (Ac-WAAPFLRA-NH2) [(32)]
800 ppm
  Inhibition rate of smooth muscle contraction in ileum: 44.41%

## Ac-Val-Lys-Val-Leu-Gln-Trp-NH2 (Ac-VKVLQW-NH2) [Peptide (4)]
25 ppm, Mean±SD
  Inhibition rate of smooth muscle contraction in ileum: 49.78%
50 ppm, Mean±SD
  Inhibition rate of smooth muscle contraction in ileum: 62.40%
100 ppm, Mean±SD
  Inhibition rate of smooth muscle contraction in ileum: 66.72%
200 ppm, Mean±SD
  Inhibition rate of smooth muscle contraction in ileum: 76.88%
